# From paper PMC11467737, “Osteocalcin binds to a GPRC6A Venus fly trap allosteric site to positively modulate GPRC6A signaling” (FASEB BioAdvances, 2024)
# Substitutions are numbered along the chain they refer to. Bridge positions count the residues as written; N and C are the ends. Ends that are not written are not given here.
# Assays:
# Assay type in all cases: cell-based
# K352E hGPRC6A = biological target: T1, K352E hGPRC6A (Homo sapiens, UniProt Q5T6X5, K352E); assay: cAMP accumulation in HEK-293 cells transfected with K352E hGPRC6A; settings: K352E mutant; for cAMP accumulation by Ocn small fragments: fragment at 20 nM, Figure 6C
# T1 construct: expressed in transfected cells; host or cells: HEK-293, pcDNA3
# T1 sequence (Q5T6X5 19-926 K352E): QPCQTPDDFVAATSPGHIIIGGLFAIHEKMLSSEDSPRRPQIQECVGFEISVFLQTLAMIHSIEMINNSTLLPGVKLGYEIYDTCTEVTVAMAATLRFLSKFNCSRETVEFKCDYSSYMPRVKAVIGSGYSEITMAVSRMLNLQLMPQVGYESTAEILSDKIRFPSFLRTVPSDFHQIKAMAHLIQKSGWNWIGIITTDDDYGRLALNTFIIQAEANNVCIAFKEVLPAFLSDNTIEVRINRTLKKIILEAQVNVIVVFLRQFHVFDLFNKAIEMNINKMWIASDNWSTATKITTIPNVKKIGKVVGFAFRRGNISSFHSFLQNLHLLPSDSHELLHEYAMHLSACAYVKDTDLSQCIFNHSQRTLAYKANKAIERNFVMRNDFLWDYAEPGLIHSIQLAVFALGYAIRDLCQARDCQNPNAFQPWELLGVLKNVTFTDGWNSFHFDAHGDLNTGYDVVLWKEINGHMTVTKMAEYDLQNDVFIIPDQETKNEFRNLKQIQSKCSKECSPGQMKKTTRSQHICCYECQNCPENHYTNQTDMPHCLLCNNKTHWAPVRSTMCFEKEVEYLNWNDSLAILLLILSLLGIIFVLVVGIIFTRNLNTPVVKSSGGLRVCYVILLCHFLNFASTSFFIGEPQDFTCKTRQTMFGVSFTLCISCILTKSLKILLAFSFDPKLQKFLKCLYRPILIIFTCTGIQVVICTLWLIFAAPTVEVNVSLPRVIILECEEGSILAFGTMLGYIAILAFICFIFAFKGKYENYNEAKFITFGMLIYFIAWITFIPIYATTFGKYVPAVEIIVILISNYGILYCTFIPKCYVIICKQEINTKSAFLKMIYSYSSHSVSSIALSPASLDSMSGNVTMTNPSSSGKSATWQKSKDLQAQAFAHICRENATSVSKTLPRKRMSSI
# Method: (§1) HEK‐293 transfected with human GPRC6A isoform cDNA plasmids cells (10^5 cells/well)[30] were cultured in 24‐well plates in DMEM supplemented with 10% fetal bovine serum and 1% penicillin/streptomycin (100 U/mL of penicillin and 100 μg/mL of streptomycin) for 48 h followed by 4 h incubation in DMEM/F12 containing 0.1% BSA and 0.5 mM IBMX to achieve quiescence and preventing cAMP degradation. Quiescent cells were treated with vehicle control, various ligands at concentration as indicated for 40 min at 37°C. Then, the reaction was stopped, and the cells lysed with 0.5 mL 0.1 N HCl. cAMP levels were measured by using Cyclic AMP EIA kit (Cayman Chemical; Ann Arbor, MA, USA) following the manufacture's protocol.
# (§2) In‐vitro mutagenesis by PCR‐mediated recombination QuikChange II XL Site‐Directed Mutagenesis Kit (Agilent) was performed using the cDNA of human GPRC6A cloned in the vector pcDNA3 (Invitrogen) as a template. The primer sets are as follows. K352E.sen: […]; K352E.antisen: […]; H355P.sen: […]; H355P.antisen: […]; K352E/H355P.sen: […]; and K352E/H355P.antisen: […]. All mutants were confirmed by sequencing.
# H355P hGPRC6A [1] = biological target: T2, H355P hGPRC6A (Homo sapiens, UniProt Q5T6X5, H355P); assay: cAMP accumulation in HEK-293 cells transfected with H355P hGPRC6A; settings: H355P mutant; for cAMP accumulation by Ocn small fragments: fragment at 20 nM, Figure 6C
# T2 construct: expressed in transfected cells; host or cells: HEK-293, pcDNA3
# T2 sequence (Q5T6X5 19-926 H355P): T1 sequence (Q5T6X5 19-926 K352E) with E334K, H337P
# Method: as §1, §2
# H355P hGPRC6A [2] = biological target: T2, H355P hGPRC6A; assay: ERK activation in HEK-293 cells transfected with H355P hGPRC6A; settings: H355P mutant; for ERK activation by Ocn small fragments: fragment at 20 nM, Figure 6D
# Method: All culture reagents were from Invitrogen (Waltham, MA, USA). Human embryonic kidney HEK‐293 cells were obtained from American Type Culture Collection and cultured in DMEM medium supplemented with 10% fetal bovine serum and 1% Penicillin/Streptomycin (P/S). Briefly, HEK‐293 cells transfected with/without human GPRC6A isoforms cDNA plasmids were starved by overnight incubation in serum‐free DMEM/F12 containing 0.1% bovine serum albumin (BSA) and stimulated with various ligands at different doses. ERK activation was assessed 20 min after treatment by using ERK1/2 (phospho‐T203/Y204) ELISA Kit (Invitrogen; Waltham, MA, USA) corrected for the amount of total ERK using ERK1/2 (Total) ELISA Kit (Invitrogen; Waltham, MA, USA) to measure ERK levels.
# as §2
cAMP accumulation by Ocn small fragments (K352E hGPRC6A),cAMP accumulation by Ocn small fragments (H355P hGPRC6A [1]),ERK activation by Ocn small fragments (H355P hGPRC6A [2]),"cAMP accumulation, dose response of full-length Ocn, versus wild-type receptor (K352E hGPRC6A; Figure 6A)","cAMP accumulation, dose response of full-length Ocn, versus wild-type receptor (H355P hGPRC6A [1]; Figure 6A)","ERK phosphorylation, dose response of full-length Ocn, versus wild-type receptor (H355P hGPRC6A [2]; Figure 6B)",Substance
no response,no response,no response,,,,"REVCELNPDC (disulfide 4-10 (inferred)) [Ocn 20–29, synthesized human Ocn decapeptide fragment located in the middle of the protein]"
significantly attenuated,significantly attenuated,significantly attenuated,,,,"RFYGPV [Ocn 44–49, synthesized human Ocn C‐terminal hexapeptide]"
,,,significantly decreased,significantly decreased,significantly decreased,"osteocalcin (YLYQWLGAPVPYPDPLEPRREVCELNPDCDELADHIGFQEAYRRFYGPV; not fully specified; ends and bridges not checked; UniProt P02818 52-100, looked up) [Ocn 1–49, full human Ocn (49 aa) synthesized by BioMatik; methods also describe decarboxylated Ocn purified from bovine tibial bone, reference compound]"
